Reference: patent US20110158980A1, “METHODS TO TREAT AND SCREEN FOR AGENTS TO TREAT OBESITY” (TRUSTEES OF TUFTS COLLEGE, priority 2008, published 2011)

Legend:
Format in all cases: cell-based
[1] = test system: 3T3-L1 adipocytes; experiment: Metabolic flux analysis (stoichiometric model) of adipocyte intermediary metabolism; settings: day 12 post-induction
Method: (§1) 3T3-L1 preadipocytes were plated onto 24-well plates and expanded in preadipocyte growth medium consisting of DMEM supplemented with calf serum (10% v/v), penicillin and streptomycin. Medium was replenished every other day. Two days post-confluence, the cells were induced to differentiate using an adipogenic cocktail (1 μg/ml insulin, 0.5 mM isobutylmethylxanthine, and 1 μM dexamethasone) added to a basal medium (DMEM with 10% fetal bovine serum and penicillin/streptomycin). After 48 hrs, the first medium was replaced with a second induction medium consisting of the basal adipocyte medium supplemented with only insulin. […] This basal medium was replenished every other day during the remainder of the culture experiments.
A stoichiometric model of adipocyte central carbon metabolism was constructed as described previously (Si Y, Yoon J, Lee K. American journal of physiology 2007; 292:E1637-46). The model consisted of the major pathways of central carbon metabolism (Table 1). Intracellular fluxes were estimated by solving a constrained non-linear optimization problem with stoichiometric and thermodynamic constraints (Nolan R P, Fenley A P, Lee K. Metab Eng 2006; 8:30-45).

[2] = test system: 3T3-L1 adipocytes; experiment: Amino acid uptake or output of adipocytes (HPLC of spent medium); settings: 20 mM OXA; day 12 post-induction; positive value = uptake
Method: as §1
(§2) Metabolite measurements were performed both on cell lysates and spent medium samples as described previously (Si Y, Yoon J, Lee K. American journal of physiology 2007; 292:E1637-46). Cells were lysed in situ with an 0.1% SDS buffer and sonicated. Immediately after collection, the spent medium samples were cleaned of cell debris by a brief centrifugation step. Free glycerol, TG and free fatty acids (FFAs) were measured using enzymatic assay kits (SIGMA™). Glucose and lactate concentrations were measured using the methods of Trinder (Trinder P. J Clin Pathol 1969; 22:158-61) and Loomis (Loomis M E. J Lab Clin Med 1961; 57:966-9), respectively. Amino acids were quantified by HPLC using fluorescence-based detection following pre-column derivatization of primary or secondary amines with 6-aminoquinolyl-N-hydroxysuccinimidyl-carbamate (Cohen S A, De Antonis K M. J Chromatogr A 1994; 661:25-34). All metabolite data were normalized by the corresponding cell sample DNA content, which was determined with a fluorescence-based assay using the Hoechst dye.

[3] = test system: 3T3-L1 adipocytes; experiment: Metabolite assays (TG, FFA, glucose, lactate, glycerol) on cell lysates and spent medium; settings: 20 mM oxamate, day 12 post-induction
Method: as §1, §2

## NC(=O)C(=O)O [oxamate]
[1]; OXA 20 mM
  Flux RXN 1 Glycolysis: Glucose + ATP = Glucose 6-P + ADP: 212.3 ± 15.3 mmol/g-DNA/2 days
  Flux RXN 2 Glycolysis: Glucose 6-P = Fructose 6-P: 205.0 ± 14.2 mmol/g-DNA/2 days
  Flux RXN 3 Glycolysis: Fructose 6-P + ATP = Glyceraldehyde 3-P + Glycerone-P + ADP: 209.9 ± 14.8 mmol/g-DNA/2 days
  Flux RXN 4 Glycolysis: Glycerone-P = Glyceraldehyde 3-P: 187.8 ± 13.9 mmol/g-DNA/2 days
  Flux RXN 5 Glycolysis: Glyceraldehyde 3-P + NAD+ + ADP + Pi = P-Enolpyruvate + ATP + H2O: 400.1 ± 28.6 mmol/g-DNA/2 days
  Flux RXN 6 Glycolysis: P-Enolpyruvate + ADP + H+ = Pyruvate + ATP: 463.5 ± 35.6 mmol/g-DNA/2 days
  Flux RXN 7 Glycolysis: Pyruvate + NADH + H+ = Lactate + NAD+: 119.2 ± 9.1 mmol/g-DNA/2 days
  Flux RXN 8 Pentose phosphate pathway: Glucose 6-P + 2 NADP+ + H2O = Ribulose 5-P + CO2 + 2 NADPH + 2 H+: 7.3 ± 4.6 mmol/g-DNA/2 days
  Flux RXN 9 Pentose phosphate pathway: 3 Ribulose 5-P = 2 Fructose 6-P + Glyceraldehyde 3-P: 2.4 ± 1.5 mmol/g-DNA/2 days
  Flux RXN 10 TCA cycle (mitochondria) (PDC): 290.4 ± 25.6 mmol/g-DNA/2 days
  Flux RXN 11 TCA cycle (mitochondria) (PC): 109.1 ± 31.7 mmol/g-DNA/2 days
  Flux RXN 12 TCA cycle (mitochondria): 185.0 ± 19.7 mmol/g-DNA/2 days
  Flux RXN 13 TCA cycle (mitochondria): 226.7 ± 26.2 mmol/g-DNA/2 days
  Flux RXN 14 TCA cycle (mitochondria): 236.0 ± 26.3 mmol/g-DNA/2 days
  Flux RXN 15 TCA cycle (mitochondria): 236.0 ± 26.3 mmol/g-DNA/2 days
  Flux RXN 16 TCA cycle (mitochondria): 181.2 ± 40.8 mmol/g-DNA/2 days
  Flux RXN 17 TCA cycle: Citrate + CoA + ATP = Acetyl-CoA + Oxaloacetate + ADP + Pi: 63.7 ± 12.9 mmol/g-DNA/2 days
  Flux RXN 18 TCA cycle: Oxaloacetate + NADH + H+ = Malate + NAD+: 0.3 ± 0.8 mmol/g-DNA/2 days
  Flux RXN 19 TCA cycle: Malate + NADP+ = Pyruvate + CO2 + NADPH: 55.2 ± 20.8 mmol/g-DNA/2 days
  Flux RXN 20 TCA cycle: Citrate + NADP+ = 2-Oxoglutarate + CO2 + NADPH + H+: 41.6 ± 9.1 mmol/g-DNA/2 days
  Flux RXN 21 TCA cycle: Oxaloacetate + ATP = P-Enolpyruvate + CO2 + ADP: 63.4 ± 12.9 mmol/g-DNA/2 days
  Flux RXN 22 Oxidative phosphorylation (NADH + 0.5 O2): 770.4 ± 108.2 mmol/g-DNA/2 days
  Flux RXN 23 Oxidative phosphorylation (FADH2 + 0.5 O2): 252.2 ± 26.4 mmol/g-DNA/2 days
  Flux RXN 24 Palmitate biosynthesis: 8.0 ± 1.6 mmol/g-DNA/2 days
  Flux RXN 25 Tripalmitoylglycerol biosynthesis: Glycerone-P + 3 Palmitate to Tripalmitoylglycerol: 22.1 ± 4.8 mmol/g-DNA/2 days
  Flux RXN 26 Tripalmitoylglycerol + 3 H2O = Glycerol + 3 Palmitate: 19.8 ± 4.4 mmol/g-DNA/2 days
  Flux RXN 27 Tripalmitoylglycerol accumulation: 2.3 ± 0.5 mmol/g-DNA/2 days
  Flux RXN 28 Metabolism of ketone bodies: 6.4 ± 0.3 mmol/g-DNA/2 days
  Flux RXN 29 Metabolism of ketone bodies: 0.0 ± 0.0 mmol/g-DNA/2 days
  Flux RXN 30 Metabolism of ketone bodies (to 3-Hydroxybutyrate): 10.8 ± 2.2 mmol/g-DNA/2 days
  Flux RXN 31 Amino acid metabolism: Pyruvate + NH4+ + NADPH = Alanine: 0.0 ± 0.0 mmol/g-DNA/2 days
  Flux RXN 32 Amino acid metabolism: Aspartate + NH4+ = Asparagine: 0.6 ± 0.1 mmol/g-DNA/2 days
  Flux RXN 33 Amino acid metabolism: Aspartate = Oxaloacetate + NH4+ + NADH: 0.0 ± 0.0 mmol/g-DNA/2 days
  Flux RXN 34 Amino acid metabolism: Cysteine = Pyruvate + NH4+ + NADH: 0.0 ± 0.0 mmol/g-DNA/2 days
  Flux RXN 35 Amino acid metabolism: Glutamate = 2-Oxoglutarate + NH4+ + NADH: 0.0 ± 0.0 mmol/g-DNA/2 days
  Flux RXN 36 Amino acid metabolism: Glutamate + NH4+ + ATP = Glutamine: 8.0 ± 1.0 mmol/g-DNA/2 days
  Flux RXN 37 Amino acid metabolism: Serine + THF = Glycine: 5.0 ± 0.3 mmol/g-DNA/2 days
  Flux RXN 38 Amino acid metabolism: Histidine + THF = Glutamate + NH4+: 4.1 ± 0.5 mmol/g-DNA/2 days
  Flux RXN 39 Amino acid metabolism: Isoleucine + 2 CoA: 6.1 ± 0.3 mmol/g-DNA/2 days
  Flux RXN 40 Amino acid metabolism: Leucine + CoA + CO2 + ATP: 6.8 ± 0.3 mmol/g-DNA/2 days
  Flux RXN 41 Amino acid metabolism: Lysine = 2-Oxoadipate + 2 NH4+ + 3 NADH: 0.0 ± 0.0 mmol/g-DNA/2 days
  Flux RXN 42 Amino acid metabolism: 2-Oxoadipate + CoA: 0.0 ± 0.0 mmol/g-DNA/2 days
  Flux RXN 43 Amino acid metabolism: Methionine + Serine + ATP + CoA + THF: 0.0 ± 0.0 mmol/g-DNA/2 days
  Flux RXN 44 Amino acid metabolism: Phenylalanine + O2 + NADH = Tyrosine: 0.0 ± 0.0 mmol/g-DNA/2 days
  Flux RXN 45 Amino acid metabolism: Glutamate + ATP + 2 NADPH = Proline: 0.0 ± 0.0 mmol/g-DNA/2 days
  Flux RXN 46 Amino acid metabolism: Serine = Pyruvate + NH4+: 0.0 ± 0.0 mmol/g-DNA/2 days
  Flux RXN 47 Amino acid metabolism: Threonine + CoA to Glycine: 0.0 ± 0.0 mmol/g-DNA/2 days
  Flux RXN 48 Amino acid metabolism: Tryptophan + 3 O2 + NADPH = 2-Oxoadipate + Alanine + CO2 + NH4+: 0.0 ± 0.0 mmol/g-DNA/2 days
  Flux RXN 49 Amino acid metabolism: Tyrosine + 2 O2: 0.0 ± 0.0 mmol/g-DNA/2 days
  Flux RXN 50 Amino acid metabolism: Valine + CoA: 3.3 ± 0.2 mmol/g-DNA/2 days
  Flux RXN 51 Plasma exchange: Palmitate: 1.0 ± 0.1 mmol/g-DNA/2 days
  Flux RXN 52 Plasma exchange: Acetoacetate: 2.4 ± 1.9 mmol/g-DNA/2 days
  Flux RXN 53 Plasma exchange: Alanine: 0.0 ± 0.0 mmol/g-DNA/2 days
  Flux RXN 54 Plasma exchange: Aspartate: 0.6 ± 0.1 mmol/g-DNA/2 days
  Flux RXN 55 Plasma exchange: Cysteine: 0.0 ± 0.0 mmol/g-DNA/2 days
  Flux RXN 56 Plasma exchange: Glutamate: 3.9 ± 0.5 mmol/g-DNA/2 days
  Flux RXN 57 Plasma exchange: Glycine: 5.0 ± 0.3 mmol/g-DNA/2 days
  Flux RXN 58 Plasma exchange: Serine: 5.0 ± 0.3 mmol/g-DNA/2 days
  Flux RXN 59 Plasma exchange: Tyrosine: 0.0 ± 0.0 mmol/g-DNA/2 days
  Flux RXN 60 Plasma exchange: O2 (calculated oxygen uptake rate): 511.3 ± 67.1 mmol/g-DNA/2 days
  Flux RXN 61 Plasma exchange: CO2: 756.9 ± 75.2 mmol/g-DNA/2 days
  Flux RXN 62 Plasma exchange: NH4+: 11.7 ± 0.5 mmol/g-DNA/2 days
  Flux RXN 63 Mitochondrial exchange: Pyruvate: 399.5 ± 40.8 mmol/g-DNA/2 days
  Flux RXN 64 Mitochondrial exchange: Malate in, Citrate out: 105.3 ± 13.9 mmol/g-DNA/2 days
  Flux RXN 65 Mitochondrial exchange: 2-Oxoglutarate in, Malate out: 41.6 ± 9.1 mmol/g-DNA/2 days
  Flux RXN 66 Mitochondrial exchange: Pi in, Malate out: 54.8 ± 20.5 mmol/g-DNA/2 days
[1]; oxamate
  Decrease of PC flux: 41%
  Decrease of citrate transport out of the mitochondria: 44%
  Decrease of de novo fatty acid synthesis: 49%
  Decrease of flux through glycolysis: 17˜26%
  Decrease of flux through the pentose phosphate pathway (PPP): 82%
  Decrease of pyruvate flux entering the TCA cycle: 21%
  Increase of lipolysis: 131%
  Increase of triglyceride synthesis: 65%
  Reduction of net triglyceride accumulation: 52%
[2]
  ALA uptake or output: 0.6 ± 0.0 mmol/g-DNA/2 days
  ASN uptake or output: −1.1 ± 0.2 mmol/g-DNA/2 days
  ASP uptake or output: 0.0 ± 0.0 mmol/g-DNA/2 days
  GLN uptake or output: −12.0 ± 1.5 mmol/g-DNA/2 days
  GLU uptake or output: 0.4 ± 0.0 mmol/g-DNA/2 days
  GLY uptake or output: −5.9 ± 0.4 mmol/g-DNA/2 days
  HIS uptake or output: −0.2 ± 0.1 mmol/g-DNA/2 days
  ILE uptake or output: 6.1 ± 0.3 mmol/g-DNA/2 days
  LEU uptake or output: 6.8 ± 0.3 mmol/g-DNA/2 days
  LYS uptake or output: −2.0 ± 0.3 mmol/g-DNA/2 days
  MET uptake or output: 0.0 ± 0.0 mmol/g-DNA/2 days
  PHE uptake or output: −0.3 ± 0.1 mmol/g-DNA/2 days
  PRO uptake or output: −0.5 ± 0.0^ mmol/g-DNA/2 days
  SER uptake or output: 4.0 ± 0.2 mmol/g-DNA/2 days
  THR uptake or output: −1.4 ± 0.3^ mmol/g-DNA/2 days
  TYR uptake or output: −0.3 ± 0.1 mmol/g-DNA/2 days
  VAL uptake or output: 3.3 ± 0.2 mmol/g-DNA/2 days
[3]
  Glycerol output raised: 1.3 fold
  Reduction of glucose uptake: 20%
[3]; Mus musculus, 3T3-L1, vs untreated control, read-out: Inhibition of lactate output
  inhibition at 20000 µM: 40%
